Test results as given in ChEMBL document CHEMBL4138216, “Design, synthesis and structure-activity relationship of a focused library of β-phenylalanine derivatives as novel eEF2K inhibitors with apoptosis-inducing mechanisms in breast cancer” (Eur J Med Chem, 2018).
Activity calls are given as the source filed them. The rule behind the calls is not given here.

Assays:
[1] = test system: MDA-MB-436; assay: Induction of apoptosis in human MDA-MB-436 cells assessed as downregulation of Bcl-2 expression after 12 to 36 hrs by Western blot method; format: functional, cell-based
[2] = test system: Mus musculus; assay: Toxicity in BALB/c nude mouse xenografted with human MDA-MB-231 cells assessed as body weight loss at 50 to 100 mg/kg, ig qd measured every 3 days for 24 days during compound dosing; format: organism-based; conditions: in vivo, po, 576 h
[3] = test system: MDA-MB-231; assay: Induction of apoptosis in human MDA-MB-231 cells xenografted in BALB/c nude mouse assessed as increase in caspase-3 cleavage at 25 to 100 mg/kg, ig qd measured after 24 days by Western blot method; format: functional, organism-based
[4] = test system: Mus musculus; assay: In vivo inhibition of eEF2K phosphorylation in tumor of BALB/c nude mouse xenografted with human MDA-MB-231 cells at 25 to 100 mg/kg, ig qd measured after 24 days by Western blot method; format: functional, organism-based
[5] = test system: Mus musculus; assay: Toxicity in BALB/c nude mouse xenografted with human MDA-MB-436 cells assessed as effect on liver weight at 25 to 100 mg/kg, ig qd measured after 24 days; format: organism-based; conditions: in vivo, po, 576 h
[6] = test system: MDA-MB-436; assay: Induction of apoptosis in human MDA-MB-436 cells assessed as increase in caspase-3 cleavage after 12 to 36 hrs by Western blot method; format: functional, cell-based
[7] = test system: Mus musculus; assay: Toxicity in BALB/c nude mouse xenografted with human MDA-MB-231 cells assessed as effect on liver weight at 25 to 100 mg/kg, ig qd measured after 24 days; format: organism-based; conditions: in vivo, po, 576 h
[8] = test system: MDA-MB-436; assay: Induction of apoptosis in human MDA-MB-436 cells assessed as membrane blebbing by phase contrast microscopy; format: functional, cell-based
[9] = test system: MDA-MB-231; assay: Induction of apoptosis in human MDA-MB-231 cells xenografted in BALB/c nude mouse assessed as decrease in pro-caspase-3 levels at 25 to 100 mg/kg, ig qd measured after 24 days by immunohistochemical analysis; format: functional, organism-based
[10] = test system: Mus musculus; assay: Toxicity in BALB/c nude mouse xenografted with human MDA-MB-231 cells assessed as effect on kidney weight at 25 to 100 mg/kg, ig qd measured after 24 days; format: organism-based; conditions: in vivo, po, 576 h
[11] = test system: MDA-MB-436; assay: Antiproliferative activity against human MDA-MB-436 cells assessed as decrease in cell viability after 24 hrs by MTT assay; format: functional, cell-based; conditions: MDA-MB-436, 24 h

In the case of `N#Cc1ccc(S(=O)(=O)NC(CC(=O)O)c2ccc(Cl)cc2Cl)cc1` (stereo unspecified), the Activity [1] is reported as “Active”, the Activity [2] is reported as “Non-Toxic” and the Activity [3] is reported as “Active”. For the same compound, the inhibition [4] was “Active”, the Activity [5] was “Non-Toxic” and the Activity [6] was “Active”. For the same compound, the Activity [7] was “Non-Toxic”, the Activity [8] was “Active” and the Activity [9] was “Active”. The Activity [10] was “Non-Toxic” and the IC50 [11] was 19.8 µM.
